“And” between values parts separate entries of the source, which are not always exact repeats. Identical values can stand only once.
Legend:
Format in all cases: cell-based
[1] = test system: Pseudomonas aeruginosa (ATCC 15442) biofilm; test: MBEC biofilm eradication test (Calgary biofilm device); conditions: one-hour biocide contact time; for MBEC (minimum biofilm eradication concentration): individual determinations
From the text: Table 45 summarizes test results performed at MBEC Biofilm Technologies, Inc., Calgary, Canada on the effectiveness of various biocides on biofilm removal. The test procedure, developed at the University of Calgary, utilizes a device which allows the growth of 96 identical biofilms under carefully controlled conditions. The device consists of a two-part vessel comprised of an upper plate containing 96 pegs that seals against a bottom plate. The bottom plate can consist of either a trough (for biofilm growth) or a standard 96-well plate (for biocide challenge). The biofilms develop on the 96 pegs. The device has been used as a general method for evaluating the efficacy of antibiotics and biocides towards biofilms. See in this connection H. Ceri, et al., “The MBEC Test: A New In Vitro Assay Allowing Rapid Screening for Antibiotic Sensitivity of Biofilm”, Proceedings of the ASM, 1998, 89, 525; Ceri, et al., “Antifungal and Biocide Susceptibility testing of Candida Biofilms using the MBEC Device”, Proceedings of the Interscience Conference on Antimicrobial Agents and Chemotherapy, 1998, 38, 495; and H. Ceri, et al., “The Calgary Biofilm Device: A New Technology for the Rapid Determination of Antibiotic Susceptibility of Bacterial Biofilms”, Journal of Clinical Microbiology, 1999, 37, 1771-1776.
Six biocide systems were evaluated using the above test procedure and test equipment. Five of these systems were oxidizing biocides, viz., chlorine (from NaOCl), halogen (from NaOCl+NaBr), halogen (from BCDMH), bromine (from DBDMH), and chlorine (from trichloroisocyanuric acid), all expressed as bromine as Br2 in mg/L, so that all test results were placed on the same basis. The sixth biocide was glutaraldehyde, a non-oxidizing biocide.
These biocide systems were used to challenge biofilms of Pseudomonas aeruginosa (ATCC 15442). This is a Gram (−) bacterium which is ubiquitous in microbiological slimes found in many water systems. See in this connection J. W. Costerton and H. Anwar, “Pseudomonas aeruginosa: The Microbe and Pathogen”, in Pseudomonas aeruginosa Infections and Treatment, A. L. Baltch and R. P. Smith editors, Marcel Dekker publishers, New York, 1994. In the field of poultry processing, S. Notermans, J. Dormans, and G. C. Mead, Biofouling, 1991, Vol. 5, pages 21-36, report observation of biofilms in poultry slaughter houses by use of scanning electron microscopy.
In Table 45 the MBEC (minimum biofilm eradication concentration) results presented are for the one-hour biocide contact time used in the test. The values given for the halogen containing biocides are expressed in terms of mg/L of bromine as Br2. The data on the glutaraldehyde is in terms of mg/L as active ingredient. […] In fact, only slightly more than one-half as much bromine from DBDMH was required to remove the biofilm as compared to the total halogen, expressed as Br2, that was required from BCDMH.

[2] = test system: Escherichia coli field strain; test: Chill water bacteria count (Example 1); conditions: bacteria count per mL of treatment water
From the text: (§1) The effect of these treatments on the residual chill tank water was also investigated. Carcasses were first immersed in a warm bath containing 10^4 E coli per mL of liquid. Carcasses were then immersed in chill tanks containing normal organic fluids (blood, fat, skin, and meat particles) and containing one of the respective microbiocidal compositions under test. Total bacteria count of whole bird (both inside and outside) was used to determine efficacy of various microbiocidal compositions. […] Albemarle Corporation). The trial events and experimental design used were as follows: • a) For all treatments a total of 190 birds were processed in a normal fashion. […] This was best done by grasping the broiler carcass with one hand and the closed top of the bag with the other then rocking with a reciprocal motion in a 18-24 inch arc, assuring that all carcass surfaces (interior and exterior) were rinsed. • h) The rinse solutions were then transferred from each stomacher bag into individual sample bottles, taking care to ensure that the information on the date of collection, time of collection, and treatment group matched that of the sample. Each bottle was sealed with parafilm and stored in a refrigerator. • i) Dilution of the fluids was conducted such that a 25-250 count was present on the MacConkey plate. […] Poultry carcass microbial contamination measurement was achieved by the complete washing of the entire carcass surface (inside and outside) using suitable sterile stripping solution followed by collection and plating of the stripping solution for bacterial enumeration.

[3] = test system: Escherichia coli field strain; test: Carcass total bacteria count after 1.5-hour chill tank immersion (Example 1); conditions: average of 10 birds; for Mean Bacteria Reduction (carcass): 1.5 h chill tank
From the text: as §1

[4] = 100 ppm Cl2 equivalent (Aquatize: 100 ppm sodium chlorite)
[5] = 150 ppm Cl2 equivalent (Aquatize: 150 ppm sodium chlorite)
[6] = 50 ppm Cl2 equivalent (Aquatize: 50 ppm sodium chlorite)

Structure (SMILES): O=CCCCC=O [Glutaraldehyde, glutaraldehyde]
- MBEC, avg. [1]: 50 mg/L as active ingredient
- MBEC (minimum biofilm eradication concentration) [1]: 50, 50 mg/L as active ingredient

Structure (SMILES): [Na+].[O-]Cl [NaOCl]
- MBEC, avg. [1]: 3.8 mg/L of bromine as Br2
- MBEC (minimum biofilm eradication concentration) [1]: 5.0 mg/L of bromine as Br2 and 2.5 mg/L of bromine as Br2

Structure (SMILES): [Br-].[Na+] [Sodium bromide, sodium bromide]
- Chill Water Bacteria Count (Mean Bacteria Reduction) ([2]; 50 ppm Cl2 equivalent (Aquatize: 50 ppm sodium chlorite), negative control 5.11 × 10^3): 4.67 × 10^3 per mL
- Chill Water Bacteria Count (Mean Bacteria Reduction) [2, 4]: 3.49 × 10^3 per mL
- Chill Water Bacteria Count (Mean Bacteria Reduction) [2, 5]: 2.23 × 10^3 per mL
- Mean Bacteria Reduction (carcass) ([3]; 50 ppm Cl2 equivalent (Aquatize: 50 ppm sodium chlorite), control carcass 2.67 × 10^5 total count): 92
- Mean Bacteria Reduction Count (carcass) [3, 6]: 92
- Percent Bacteria Reduction From Control (carcass) [3, 6]: 0.034%
- Mean Bacteria Reduction (carcass) [3, 4]: 6.54 × 10^2
- Mean Bacteria Reduction Count (carcass) [3, 4]: 654
- Percent Bacteria Reduction From Control (carcass) [3, 4]: 0.245%
- Mean Bacteria Reduction (carcass) [3, 5]: 1.73 × 10^3
- Mean Bacteria Reduction Count (carcass) [3, 5]: 1,730
- Percent Bacteria Reduction From Control (carcass) [3, 5]: 0.648%

Structure (SMILES): O=c1n(Cl)c(=O)n(Cl)c(=O)n1Cl [Trichloroisocyanuric acid, trichloroisocyanuric acid]
- MBEC, avg. [1]: 2.0 mg/L of bromine as Br2
- MBEC (minimum biofilm eradication concentration) [1]: 2.6 mg/L of bromine as Br2 and 1.3 mg/L of bromine as Br2

Reference: US7767240B2, “Microbiological control in poultry processing” (priority 2001, dated 2010)
